According to paper PMC6688997 (Nature Communications, 2019):
Read-outs that look alike come from different tables or passages of the source.

Legend:
CLK3 = molecular target: T1, CLK3 (Homo sapiens, UniProt P49761); assay: Kinase assay, ATP Km; assay type: biochemical
T1 construct: purchased Carna Biosciences

[1] = test system: Ba/F3-CD74-ROS1-WT xenograft; assay type: in vivo, mouse; details: for Tumor volume (average / SE): ROS1-WT xenograft
JAK2 = molecular target: T2, JAK2 (Homo sapiens, UniProt O60674); assay: Kinase assay, 1 mM ATP; assay type: biochemical
T2 construct: purchased Carna Biosciences

IKKβ = molecular target: T3, IKKβ (Homo sapiens, UniProt O14920); assay: Kinase assay, ATP Km; assay type: biochemical
T3 construct: purchased Carna Biosciences

RSK1 = molecular target: T4, RSK1 (Homo sapiens, UniProt Q15418); assay: Kinase assay, ATP Km; assay type: biochemical
T4 construct: purchased Carna Biosciences

GSK3β = GSK3β (Homo sapiens, UniProt P49841); assay: Kinase assay, ATP Km; assay type: biochemical
[2] = test system: Ba/F3 TPM3-NTRK1 L564H cells; assay: CellTiter-Glo cell viability assay; assay type: cell-based, murine; details: Mus musculus, BaF3, 72 h
LTK = molecular target: T5, LTK (Homo sapiens, UniProt P29376); assay: Kinase assay, 1 mM ATP; assay type: biochemical
T5 construct: purchased Carna Biosciences, Inc. (Kobe, Japan); assay run by the vendor

MELK = molecular target: T6, MELK (Homo sapiens, UniProt Q14680); assay: Kinase assay, ATP Km; assay type: biochemical
T6 construct: purchased Carna Biosciences

SLK = molecular target: T7, SLK (Homo sapiens, UniProt Q9H2G2); assay: Kinase assay, ATP Km; assay type: biochemical
T7 construct: purchased Carna Biosciences

RON = molecular target: T8, RON (Homo sapiens, UniProt Q04912); assay: Kinase assay, ATP Km; assay type: biochemical
T8 construct: purchased Carna Biosciences

EEF2K = EEF2K (Homo sapiens, UniProt O00418); assay: Kinase assay, ATP Km; assay type: biochemical
[3] = test system: Ba/F3 TPM3-NTRK1 D679G cells; assay: CellTiter-Glo cell viability assay; assay type: cell-based, murine; details: Mus musculus, BaF3, 72 h
DDR2 = molecular target: T9, DDR2 (Homo sapiens, UniProt Q16832); assay: Kinase assay, 1 mM ATP; assay type: biochemical
T9 sequence (Q16832 22-855): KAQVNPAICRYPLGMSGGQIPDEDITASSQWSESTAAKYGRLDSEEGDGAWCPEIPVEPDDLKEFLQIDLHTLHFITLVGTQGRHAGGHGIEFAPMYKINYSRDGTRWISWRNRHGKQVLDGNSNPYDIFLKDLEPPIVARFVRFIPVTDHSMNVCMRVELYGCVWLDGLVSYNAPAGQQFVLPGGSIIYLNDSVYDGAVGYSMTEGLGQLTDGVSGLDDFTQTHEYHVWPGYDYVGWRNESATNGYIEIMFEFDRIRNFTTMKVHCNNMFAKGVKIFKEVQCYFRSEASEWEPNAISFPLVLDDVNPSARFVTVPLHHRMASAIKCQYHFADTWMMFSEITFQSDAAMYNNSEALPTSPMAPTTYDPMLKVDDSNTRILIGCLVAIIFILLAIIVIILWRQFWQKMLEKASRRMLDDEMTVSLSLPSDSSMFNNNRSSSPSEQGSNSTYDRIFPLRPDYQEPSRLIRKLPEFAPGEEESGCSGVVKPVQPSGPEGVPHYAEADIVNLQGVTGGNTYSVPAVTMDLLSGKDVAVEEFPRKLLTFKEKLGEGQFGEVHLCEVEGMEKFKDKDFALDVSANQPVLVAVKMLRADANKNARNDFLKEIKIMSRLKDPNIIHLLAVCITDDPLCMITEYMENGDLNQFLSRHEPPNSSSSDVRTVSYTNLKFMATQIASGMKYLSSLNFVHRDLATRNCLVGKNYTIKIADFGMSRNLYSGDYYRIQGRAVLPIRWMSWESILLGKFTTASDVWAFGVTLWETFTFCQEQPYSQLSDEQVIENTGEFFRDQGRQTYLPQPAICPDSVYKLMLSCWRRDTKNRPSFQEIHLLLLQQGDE

Erk1 = Erk1 (Homo sapiens, UniProt P27361); assay: Kinase assay, ATP Km; assay type: biochemical
NTRK3 = molecular target: T10, NTRK3 (Homo sapiens, UniProt Q16288); assay: Kinase assay, 1 mM ATP; assay type: biochemical
T10 construct: purchased Carna Biosciences, Inc. (Kobe, Japan)

CHK1 = CHK1 (Homo sapiens, UniProt O14757); assay: Kinase assay, ATP Km; assay type: biochemical
KIT = molecular target: T11, KIT (Homo sapiens, UniProt P10721); assay: Kinase assay, ATP Km; assay type: biochemical
T11 construct: purchased Carna Biosciences, Inc. (Kobe, Japan); assay run by the vendor

HGK = molecular target: T12, HGK (Homo sapiens, UniProt O95819); assay: Kinase assay, ATP Km; assay type: biochemical
T12 construct: purchased Carna Biosciences

PHKG1 = molecular target: T13, PHKG1 (Homo sapiens, UniProt Q16816); assay: Kinase assay, ATP Km; assay type: biochemical
T13 construct: purchased Carna Biosciences

[4] = test system: EML4-ALK I1171N induced Ba/F3 cells; assay: CellTiter-Glo cell viability assay; assay type: cell-based, murine; details: Mus musculus, BaF3, 72 h; read-out: IC50
PKCα = PKCα (Homo sapiens, UniProt P17252); assay: Kinase assay, ATP Km; assay type: biochemical
NEK1 = molecular target: T14, NEK1 (Homo sapiens, UniProt Q96PY6); assay: Kinase assay, ATP Km; assay type: biochemical
T14 construct: purchased Carna Biosciences

SRC = SRC (Homo sapiens, UniProt P12931); assay: Kinase assay, ATP Km; assay type: biochemical
IKKα = molecular target: T15, IKKα (Homo sapiens, UniProt O15111); assay: Kinase assay, ATP Km; assay type: biochemical
T15 construct: purchased Carna Biosciences

PDHK4 = molecular target: T16, PDHK4 (Homo sapiens, UniProt Q16654); assay: Kinase assay, ATP Km; assay type: biochemical
T16 construct: purchased Carna Biosciences

EPHA2 = EPHA2 (Homo sapiens, UniProt P29317); assay: Kinase assay, ATP Km; assay type: biochemical
PAK1 = PAK1 (Homo sapiens, UniProt Q13153); assay: Kinase assay, ATP Km; assay type: biochemical

T5 sequence (P29376 17-864): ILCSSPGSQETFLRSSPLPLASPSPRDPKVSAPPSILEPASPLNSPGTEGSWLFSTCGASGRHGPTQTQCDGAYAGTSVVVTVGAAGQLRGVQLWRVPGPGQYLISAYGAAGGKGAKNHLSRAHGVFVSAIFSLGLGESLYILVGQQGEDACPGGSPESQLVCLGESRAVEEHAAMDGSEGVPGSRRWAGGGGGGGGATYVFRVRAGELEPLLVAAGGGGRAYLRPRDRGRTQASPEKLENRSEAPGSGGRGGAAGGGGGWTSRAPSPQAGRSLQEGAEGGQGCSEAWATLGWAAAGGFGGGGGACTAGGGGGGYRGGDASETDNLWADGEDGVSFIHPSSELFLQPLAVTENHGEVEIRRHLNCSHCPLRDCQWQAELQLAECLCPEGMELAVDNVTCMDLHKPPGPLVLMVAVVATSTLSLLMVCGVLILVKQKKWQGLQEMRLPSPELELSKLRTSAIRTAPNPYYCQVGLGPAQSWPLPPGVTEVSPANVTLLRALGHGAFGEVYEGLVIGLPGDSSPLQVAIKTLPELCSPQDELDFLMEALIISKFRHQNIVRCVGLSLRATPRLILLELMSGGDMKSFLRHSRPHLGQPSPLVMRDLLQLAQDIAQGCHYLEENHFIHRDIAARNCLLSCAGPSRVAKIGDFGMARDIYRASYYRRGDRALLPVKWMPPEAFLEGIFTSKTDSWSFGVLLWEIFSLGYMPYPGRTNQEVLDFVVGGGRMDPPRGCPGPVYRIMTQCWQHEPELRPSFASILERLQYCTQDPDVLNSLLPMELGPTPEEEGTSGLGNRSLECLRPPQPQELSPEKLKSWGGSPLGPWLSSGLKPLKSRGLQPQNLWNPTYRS
T10 sequence (Q16288 32-839): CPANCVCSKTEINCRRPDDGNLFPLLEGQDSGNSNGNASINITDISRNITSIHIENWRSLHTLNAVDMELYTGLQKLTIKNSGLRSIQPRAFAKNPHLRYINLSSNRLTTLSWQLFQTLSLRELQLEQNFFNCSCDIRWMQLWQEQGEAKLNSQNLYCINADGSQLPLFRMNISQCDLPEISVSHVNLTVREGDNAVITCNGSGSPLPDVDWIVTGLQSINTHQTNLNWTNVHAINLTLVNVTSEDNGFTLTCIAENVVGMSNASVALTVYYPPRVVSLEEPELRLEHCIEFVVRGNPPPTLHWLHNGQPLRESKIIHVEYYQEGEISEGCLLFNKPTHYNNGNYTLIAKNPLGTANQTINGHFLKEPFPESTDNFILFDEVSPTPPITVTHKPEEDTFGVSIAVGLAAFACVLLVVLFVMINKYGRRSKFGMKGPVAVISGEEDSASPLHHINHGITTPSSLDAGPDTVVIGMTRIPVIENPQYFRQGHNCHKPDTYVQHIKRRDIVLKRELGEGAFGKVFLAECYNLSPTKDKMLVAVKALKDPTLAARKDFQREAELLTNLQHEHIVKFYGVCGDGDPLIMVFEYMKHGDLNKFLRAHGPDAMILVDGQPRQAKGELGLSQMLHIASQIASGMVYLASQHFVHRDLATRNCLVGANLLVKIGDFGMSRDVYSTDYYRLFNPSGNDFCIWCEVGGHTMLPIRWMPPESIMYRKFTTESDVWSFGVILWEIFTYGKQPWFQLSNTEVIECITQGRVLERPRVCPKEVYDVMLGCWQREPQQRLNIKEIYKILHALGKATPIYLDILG
T12 sequence (O95819 whole entry): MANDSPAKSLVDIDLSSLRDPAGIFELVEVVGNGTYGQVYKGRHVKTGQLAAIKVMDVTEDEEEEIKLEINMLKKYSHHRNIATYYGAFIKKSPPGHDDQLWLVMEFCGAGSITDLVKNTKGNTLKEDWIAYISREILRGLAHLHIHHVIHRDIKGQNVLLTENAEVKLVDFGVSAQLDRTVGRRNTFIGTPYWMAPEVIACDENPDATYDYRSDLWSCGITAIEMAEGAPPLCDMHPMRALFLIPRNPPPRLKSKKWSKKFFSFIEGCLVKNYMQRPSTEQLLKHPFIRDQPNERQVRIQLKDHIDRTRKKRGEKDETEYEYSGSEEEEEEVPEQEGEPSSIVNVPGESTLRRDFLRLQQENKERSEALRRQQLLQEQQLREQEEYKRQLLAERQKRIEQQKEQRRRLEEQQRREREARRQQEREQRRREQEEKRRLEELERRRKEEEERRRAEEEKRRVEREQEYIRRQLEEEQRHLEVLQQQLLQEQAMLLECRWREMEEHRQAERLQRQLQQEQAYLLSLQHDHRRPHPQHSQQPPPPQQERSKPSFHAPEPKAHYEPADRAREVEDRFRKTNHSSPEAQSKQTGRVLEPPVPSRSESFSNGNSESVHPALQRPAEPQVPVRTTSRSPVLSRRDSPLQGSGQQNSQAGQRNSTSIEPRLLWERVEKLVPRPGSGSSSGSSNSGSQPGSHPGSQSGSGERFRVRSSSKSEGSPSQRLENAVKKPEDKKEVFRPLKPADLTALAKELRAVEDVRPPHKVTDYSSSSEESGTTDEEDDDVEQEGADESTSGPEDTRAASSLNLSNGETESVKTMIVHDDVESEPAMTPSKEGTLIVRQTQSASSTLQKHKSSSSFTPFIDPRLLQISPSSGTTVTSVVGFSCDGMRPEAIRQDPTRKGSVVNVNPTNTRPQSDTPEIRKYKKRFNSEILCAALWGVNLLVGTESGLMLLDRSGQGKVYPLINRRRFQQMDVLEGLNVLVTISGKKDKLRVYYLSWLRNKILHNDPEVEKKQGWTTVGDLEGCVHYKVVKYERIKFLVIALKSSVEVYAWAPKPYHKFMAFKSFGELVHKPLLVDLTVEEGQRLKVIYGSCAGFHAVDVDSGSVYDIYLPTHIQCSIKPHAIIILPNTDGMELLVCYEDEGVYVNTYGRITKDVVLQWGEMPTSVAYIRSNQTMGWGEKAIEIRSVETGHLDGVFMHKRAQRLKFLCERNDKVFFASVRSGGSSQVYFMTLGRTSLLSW
T7 sequence (Q9H2G2 whole entry): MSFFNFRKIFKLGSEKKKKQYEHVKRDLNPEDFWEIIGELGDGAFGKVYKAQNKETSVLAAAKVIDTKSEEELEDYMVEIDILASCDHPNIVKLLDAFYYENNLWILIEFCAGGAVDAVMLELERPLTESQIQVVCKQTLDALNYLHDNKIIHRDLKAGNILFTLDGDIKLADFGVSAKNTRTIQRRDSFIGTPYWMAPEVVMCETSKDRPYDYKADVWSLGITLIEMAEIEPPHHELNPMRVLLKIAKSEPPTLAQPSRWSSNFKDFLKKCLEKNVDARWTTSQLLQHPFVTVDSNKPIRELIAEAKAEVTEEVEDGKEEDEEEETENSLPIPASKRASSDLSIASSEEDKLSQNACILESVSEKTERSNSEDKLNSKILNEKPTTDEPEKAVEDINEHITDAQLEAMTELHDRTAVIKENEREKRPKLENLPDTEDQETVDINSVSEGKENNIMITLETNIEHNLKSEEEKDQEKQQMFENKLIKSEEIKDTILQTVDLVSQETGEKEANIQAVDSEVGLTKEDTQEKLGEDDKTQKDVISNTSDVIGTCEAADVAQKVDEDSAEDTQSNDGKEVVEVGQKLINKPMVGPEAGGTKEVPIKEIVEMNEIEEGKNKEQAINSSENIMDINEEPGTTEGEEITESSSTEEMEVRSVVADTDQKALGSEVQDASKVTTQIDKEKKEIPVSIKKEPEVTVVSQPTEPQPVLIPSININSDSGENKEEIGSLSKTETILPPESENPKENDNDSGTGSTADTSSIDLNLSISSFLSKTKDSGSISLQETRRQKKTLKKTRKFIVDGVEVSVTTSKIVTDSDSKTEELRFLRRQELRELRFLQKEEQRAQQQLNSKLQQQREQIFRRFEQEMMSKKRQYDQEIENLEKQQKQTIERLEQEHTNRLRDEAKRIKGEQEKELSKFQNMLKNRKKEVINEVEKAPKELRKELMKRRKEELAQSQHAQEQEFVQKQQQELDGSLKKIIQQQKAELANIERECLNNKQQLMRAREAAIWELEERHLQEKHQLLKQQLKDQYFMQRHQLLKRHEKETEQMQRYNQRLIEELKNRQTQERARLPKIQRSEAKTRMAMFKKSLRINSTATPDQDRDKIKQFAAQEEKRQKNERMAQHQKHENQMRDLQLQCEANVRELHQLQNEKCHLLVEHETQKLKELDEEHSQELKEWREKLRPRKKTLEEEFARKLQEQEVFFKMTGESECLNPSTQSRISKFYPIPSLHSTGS
Sequence of SRC (P12931 whole entry): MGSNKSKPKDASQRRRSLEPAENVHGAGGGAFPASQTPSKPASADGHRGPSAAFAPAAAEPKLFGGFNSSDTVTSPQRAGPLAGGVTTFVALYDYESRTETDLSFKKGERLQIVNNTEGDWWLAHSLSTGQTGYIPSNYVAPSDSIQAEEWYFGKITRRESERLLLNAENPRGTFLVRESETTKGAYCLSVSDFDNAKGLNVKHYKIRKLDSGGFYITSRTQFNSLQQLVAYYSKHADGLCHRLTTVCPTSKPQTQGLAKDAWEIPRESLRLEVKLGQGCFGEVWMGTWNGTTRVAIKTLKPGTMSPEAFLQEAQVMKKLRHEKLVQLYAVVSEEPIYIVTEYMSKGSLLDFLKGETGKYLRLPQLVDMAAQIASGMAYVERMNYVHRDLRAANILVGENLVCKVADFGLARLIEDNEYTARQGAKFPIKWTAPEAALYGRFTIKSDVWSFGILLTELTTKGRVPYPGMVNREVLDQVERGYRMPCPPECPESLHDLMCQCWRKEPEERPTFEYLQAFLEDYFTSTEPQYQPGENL
Sequence of GSK3β (P49841 whole entry): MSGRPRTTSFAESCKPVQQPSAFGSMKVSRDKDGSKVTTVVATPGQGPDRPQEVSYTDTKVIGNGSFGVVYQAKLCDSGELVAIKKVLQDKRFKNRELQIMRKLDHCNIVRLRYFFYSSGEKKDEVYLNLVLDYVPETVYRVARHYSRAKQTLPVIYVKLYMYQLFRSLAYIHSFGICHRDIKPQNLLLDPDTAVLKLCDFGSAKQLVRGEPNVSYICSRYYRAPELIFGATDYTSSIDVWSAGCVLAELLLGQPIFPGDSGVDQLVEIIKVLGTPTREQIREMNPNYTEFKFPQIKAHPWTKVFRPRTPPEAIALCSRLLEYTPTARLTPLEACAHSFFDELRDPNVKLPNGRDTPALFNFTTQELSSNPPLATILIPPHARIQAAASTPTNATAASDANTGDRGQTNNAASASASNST

For C[C@@H](N)COc1ccc(-c2cnc3ccc(N[C@H](C)c4cccc(F)c4)nn23)cc1.O=C(O)CCCCC(=O)O [DS-6051b], the inhibition at 0.04 µM (CLK3) was 5.7%, the “Tumor volume (average / SE)” value ([1]; 3 mg/kg po, day 0, N 6) was 290 mm3 and the “Tumor volume (average / SE)” value ([1]; 3 mg/kg po, day 2, N 6) was 459 mm3. For the same compound, the “Tumor volume (average / SE)” value ([1]; 3 mg/kg po, day 4, N 6) was 550 mm3, the “Tumor volume (average / SE)” value ([1]; 10 mg/kg po, day 0, N 6) was 291 mm3 and the “Tumor volume (average / SE)” value ([1]; 10 mg/kg po, day 2, N 6) was 341 mm3. The “Tumor volume (average / SE)” value ([1]; 10 mg/kg po, day 4, N 6) was 390 mm3, the “Tumor volume (average / SE)” value ([1]; 30 mg/kg po, day 0, N 6) was 286 mm3 and the “Tumor volume (average / SE)” value ([1]; 30 mg/kg po, day 2, N 6) was 189 mm3. The “Tumor volume (average / SE)” value ([1]; 30 mg/kg po, day 4, N 6) was 73 mm3, the “Tumor volume (average / SE)” value ([1]; 100 mg/kg po, day 0, N 6) was 292 mm3 and the “Tumor volume (average / SE)” value ([1]; 100 mg/kg po, day 2, N 6) was 111 mm3. The “Tumor volume (average / SE)” value ([1]; 100 mg/kg po, day 4, N 6) was 41 mm3, the “Dose showing rapid tumor regression” value ([1]; once daily oral gavage, 4 days) was ≥ 30 mg/kg and the inhibition at 0.2 µM (JAK2) was 33%. For the same compound, the inhibition at 0.04 µM (IKKβ) was -0.0613%, the inhibition at 0.04 µM (RSK1) was 5.6% and the inhibition at 0.04 µM (GSK3β) was 2.9%. For the same compound, the IC50 [2] was 25.8 nM, the “% Inhibition” value (LTK; 0.2μM, 1 mM ATP) was “almost completely inhibited” and the inhibition at 0.2 µM (LTK; 0.2μM, 1 mM ATP) was 86.9%. For the same compound, the IC50 (LTK; ATP: 1 mM) was 25.4 nM, the inhibition at 0.04 µM (MELK) was -2.2% and the inhibition at 0.04 µM (SLK) was 41.7%. It also gave an inhibition at 0.04 µM (RON) of 1%, an inhibition at 0.04 µM (EEF2K) of 0.139% and an IC50 [3] of 1.8 nM. The inhibition at 0.2 µM (DDR2; 0.2μM, 1 mM ATP) was 43.5%, the IC50 (DDR2; ATP: 1 mM) was 299 nM and the inhibition at 0.04 µM (Erk1) was -0.174%. It also gave an inhibition at 0.2 µM (NTRK3; 0.2μM, 1 mM ATP) of 95.8%, an IC50 (NTRK3; ATP: 1 mM) of 9.28 nM and an inhibition at 0.04 µM (CHK1) of 22.6%. For the same compound, the inhibition at 0.04 µM (KIT) was 12.5%, the inhibition at 0.04 µM (HGK) was 5.7% and the inhibition at 0.04 µM (PHKG1) was 48.7%. For the same compound, the IC50 [4] was 938 nM, the inhibition at 0.04 µM (PKCα) was 31.7% and the inhibition at 0.04 µM (NEK1) was 7.2%. The inhibition at 0.04 µM (SRC) was 53.6%, the inhibition at 0.04 µM (IKKα) was -1.8% and the inhibition at 0.04 µM (PDHK4) was 0.3%. The inhibition at 0.04 µM (EPHA2) was 18.4% and the inhibition at 0.04 µM (PAK1) was 1.2%.
